{"source": "patent US20200352918A1", "about": "“COMPOUNDS AND METHODS FOR TREATING OR PREVENTING FIBROSIS” (priority 2019, published 2020)", "key": {"[1]": {"tested_on": "iFA phenotype of mesenchymal-like cells on 13 kPa hydrogels", "experiment": "iFA resolution screen (reversal of fibrosis) in the iFA model", "format": "cell-based, human", "description": "Signal-to-background (S/B) ratio, standard variation and variation coefficients were calculated as the signal of DMSO treated wells divided by the signal of the hit compound (AA5) treated wells. Z′ values were used to measure assay quality which was calculated by the formula of Z′=1−3(SDTotal+SDBackground)/(MeanTotal−MeanBackground)(Inglese et al., 2006) where SDTotal and MeanTotal are the standard deviation and mean of signal for DMSO treated wells, and SDBackground and MeanBackground are the standard deviation and mean of signal for AA5 treated wells. Data normalization and curve fitting were performed as previously reported (Kariv et al., 1999, J Biomol Screen 4, 27-32.). Z′ values were obtained for the number of cellular aggregates and also calculated a phenotypic cell index as the product of cell number x area/Log(number of iFA aggregates+5). Secondary screening using α-SMA and collagen deposition was employed to further ensure efficacy and resolution of the iFA phenotype of the compounds. For the resolution screen, cells were seeded in a 96-well plate as mentioned above and compounds were added at day 13 to analyze their capacity to resolve the iFA phenotype using the same readouts as above. Dose response experiments were carried out as in the secondary screen but with at least 12 steps of a 1:1 dilution resulting in final compound concentrations from 500 μM to high nanomolar ranges.\nThe primary assay involved plating together the iPSCs and Table 1 compounds sourced from the library on day 1 on the hydrogel and examining the phenotype on day 7 of the culture as described herein. The secondary screen repeated the assay using compound sourced commercially or from additional library materials. The dose response refers to a 20 point dose course that ranges from picomolar to millimolar concentrations. […] As described herein, the cellular phenotype parameters evaluated included size, fluorescence intensity of the iFA phenotype, the shape factor of the cells/aggregates, and the cells' viability in the presence of viability dyes (Calcein AM)."}, "[2]": {"tested_on": "iFA phenotype of mesenchymal-like cells on 13 kPa hydrogels", "experiment": "iFA-prevention phenotypic high-content drug screen (iFA model)", "format": "cell-based, human", "description": "Mesenchymal-like cells were cultured on 13 kPa functionalized polyacrylamide gels that were prepared as follows. 187.5 μl of 40% acrylamide, 60 μl of 2% bis-acrylamide and 8.55 μl of sodium bisulfate in a final volume of 990 μl of water was incubated for 20 min at room temperature to degas the mixture. To this mixture, 0.10% ammonium persulfate and 0.15% TEMED were added, mixed and 100 μl of the solution was added onto a 0.4% 3-(Trimethoxysily) propyl methacrylate pH 3.5 treated coverslip. A 2% dimethyl dichlorosilane in chloroform treated round glass coverslip was then inverted on the acrylamide solution and allowed to polymerize for 15 min between the two surfaces. The top coverslip was gently removed, and the bottom coverslips with the hydrogel were transferred to appropriate multi-well low adherent tissue culture plate containing coupling buffer (0.1 M sodium phosphate dibasic, 0.1 M sodium phosphate monobasic) pH 8. To functionalize the hydrogel, 1 part of 0.1 M p-benzoquinone in dioxane was added to the hydrogels containing 4 parts of coupling buffer and incubated at 37° C. for 30 min. The gel was then successively washed with 20% dioxane in water, water, 0.1 M sodium acetate buffer at pH 4.0 containing 1.0 M sodium chloride, 0.1 M sodium bicarbonate solution at pH 8.5 containing 1.0 M sodium chloride, and finally with coupling buffer at pH 7.5. The hydrogels were then coated with 0.1% gelatin for 2 hrs prior to seeding the cells. Cells were seeded at a density of 3000 cells/cm^2.\nA phenotypic high-content drug screen was prepared to identify compounds capable of preventing the iFA phenotype in a 96-well format. An ImageXpress XL high-throughput imager with a 4× Plan objective (N/A 0.20) was used with image based focusing. Briefly, 100 μL media were plated in each well of 96 well plate using a Thermo Multidrop non-contact dispenser. Using a custom V&P pin tool mounted to a Beckman FX liquid handler, 1.5 μL compounds or DMSO were added. Mesenchymal-like cells were added as a suspension using the Multidrop at a density of 3.5×10^3 cells/well. The resulting compound concentration was 10 μM. Cells were imaged after 7 days of incubation at 37° C. and 5% CO2: A final of 0.5 μg/ml of Calcein AM and/or 10 μg/ml propidium iodide (viability dye) with 1 μg/ml Hoechst 33342 were added and imaged using the ImageXpress XL system. Data mining was performed using a custom module consisting of the following steps: The image background was removed using a top-hat filter with 25 μm round shape polisher. Next, cellular aggregates and individual spindle-shaped cells were identified. Aggregates of cells were defined by size with a cut-off of 60 to 200 micron and an intensity of at least 200 gray scales over background. Individual spindle-shaped cells were identified as smaller objects with cut-offs from 15 to 100 micron and a lower intensity of at least 70 gray scales over background.\nAdditional morphometric measurements were made by counting labeled cell nuclei and measuring total area covered with cells per well. The data resulting from the screen were batch exported through MetaXpress and uploaded into a Collaborative Drug Discovery (CDD) cloud based database (Ekins and Bunin, 2013, Methods in molecular biology 993, 139-154.). Hits were selected on a cut-off of more than 3 standard deviations from mean using data normalized to reference wells in each plate. IC50 values (the half maximal inhibitory concentration) from confirmation experiments were calculated from dose-response signal curves using the Prism software (GraphPad Software).\nSignal-to-background (S/B) ratio, standard variation and variation coefficients were calculated as the signal of DMSO treated wells divided by the signal of the hit compound (AA5) treated wells. […]"}}, "data": [{"smiles": "Cc1c(C(=O)Nc2nc3ccccc3s2)sc2nc3cc4c(cc3cc12)OCO4", "note": "[AA5]", "values": [{"measurement": "Levels of Collagen I and α-SMA (resolution of iFA phenotype)", "setting": "[1]; AA5-resolution", "result": "reduction"}, {"measurement": "Reversal of fibrosis", "setting": "[1]; phenotype formed over 10 days, then compounds added", "result": "Yes"}, {"measurement": "Prevention of the iFA phenotype", "setting": "[2]; 0.6 μM-10 μM AA5, Calcein AM / Hoechst 33342 (FIG. 17A)", "result": "Full prevention of phenotype was seen at low micromolar concentrations"}, {"measurement": "Dose response", "setting": "[2]; 20 point dose course, picomolar to millimolar", "result": "+++ (+++ = strong effect)"}, {"measurement": "IC50", "setting": "[2]; Homo sapiens, FIG. 16B, read-out: IC50 (dose response, iFA phenotype)", "result": 900, "unit": "nM"}, {"measurement": "Efficacy in secondary screen", "setting": "[2]; assay repeated with compound sourced commercially or from additional library materials", "result": "+++ (+++ = strong effect)"}, {"measurement": "Efficacy in primary screen", "setting": "[2]; library compound plated with cells on day 1 on hydrogel, phenotype on day 7, 10 μM", "result": "+++ (+++ = strong effect)"}]}]}
